Measured values as given in patent publication US20220081435A1, “ANDROGEN RECEPTOR PROTEIN DEGRADERS” (THE REGENTS OF THE UNIVERSITY OF MICHIGAN, priority 2019, published 2022).
Like-named read-outs stand apart in the source and are kept apart here.

Target: T1, AR protein (Homo sapiens, UniProt P10275, T878A)
T1 construct: The percent AR protein degradation induced by these compounds at various concentrations in LNCaP cells; host or cells: LNCaP
T1 sequence (P10275 1-920 T878A): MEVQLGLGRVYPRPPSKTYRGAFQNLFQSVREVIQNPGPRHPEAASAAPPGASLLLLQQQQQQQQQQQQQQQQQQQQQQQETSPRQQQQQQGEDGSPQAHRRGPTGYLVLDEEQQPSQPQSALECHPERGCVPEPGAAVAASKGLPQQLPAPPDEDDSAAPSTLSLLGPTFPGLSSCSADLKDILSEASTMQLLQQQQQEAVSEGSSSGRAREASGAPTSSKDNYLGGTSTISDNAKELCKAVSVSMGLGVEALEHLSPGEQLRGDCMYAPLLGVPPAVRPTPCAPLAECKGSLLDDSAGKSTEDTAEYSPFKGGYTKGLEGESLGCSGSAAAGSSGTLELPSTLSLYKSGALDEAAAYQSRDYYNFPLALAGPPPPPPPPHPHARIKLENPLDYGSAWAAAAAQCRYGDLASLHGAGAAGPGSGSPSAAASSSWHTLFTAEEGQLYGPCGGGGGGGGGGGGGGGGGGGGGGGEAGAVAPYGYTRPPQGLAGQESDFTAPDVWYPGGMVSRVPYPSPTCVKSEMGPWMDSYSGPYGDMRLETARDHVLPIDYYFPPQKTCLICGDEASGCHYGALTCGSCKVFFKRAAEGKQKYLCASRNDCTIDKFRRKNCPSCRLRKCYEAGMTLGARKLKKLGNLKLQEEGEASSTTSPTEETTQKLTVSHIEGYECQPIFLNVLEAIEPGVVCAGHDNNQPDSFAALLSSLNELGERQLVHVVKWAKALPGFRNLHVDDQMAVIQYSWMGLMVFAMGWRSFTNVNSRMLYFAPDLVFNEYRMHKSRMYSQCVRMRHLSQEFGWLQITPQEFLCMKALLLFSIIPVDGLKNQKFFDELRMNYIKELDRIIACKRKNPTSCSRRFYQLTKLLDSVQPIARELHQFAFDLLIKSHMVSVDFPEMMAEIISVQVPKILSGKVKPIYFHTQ
Assay: AR protein degradation in LNCaP cells (Western blotting)
Assay type: cell-based
Conditions: LNCaP; for Dmax at 0.1 µM / Dmax at 1 µM / Dmax at 10 µM: read-out: % AR protein degradation in LNCaP Cells
Protocol: Cell lines and Cell Culture: All the LNCaP, VCaP and 22RV1 cells used were purchased from American Type Culture Collection (ATCC). […] All of the cells were supplemented with 10% fetal bovine serum (Invitrogen) at 37° C. in a humidified 5% CO2 incubator.
Western Blotting. Treated cells were lysed by RIPA buffer supplemented with protease and phosphatase inhibitors. […] Software ImageJ was used to quantify the percentage of AR degradation. The net protein bands and loading controls are calculated by deducting the background from the inverted band value. The final relative quantification values are the ratio of net band to net loading control.

[1] = 0.1 μM, treatment time 6 h, average of three independent experiments
[2] = 1 μM, treatment time 6 h, average of three independent experiments
[3] = 10 μM, treatment time 6 h, average of three independent experiments
[4] = treatment time 6 h, average of three independent experiments

| SMILES | Dmax at 0.1 µM [1] | Dmax at 1 µM [2] | Dmax at 10 µM [3] | Dmax at 0.1 µM (6 h) | Dmax at 1 µM (6 h) | Dmax at 10 µM (6 h) | Dmax at 0.01 µM [4] |
| --- | --- | --- | --- | --- | --- | --- | --- |
| Cc1ncsc1-c1ccc(CNC(=O)C2C[C@@H](O)CN2C(=O)[C@@H](NC(=O)CCNC(=O)c2ccc(N3C(=S)N(c4ccc(C#N)c(C(F)(F)F)c4)C(=O)C3(C)C)cc2F)C(C)(C)C)cc1 (stereo partly drawn) [Compound 8, (4R)-1-((S)-2-(3-(4-(3-(4-Cyano-3-(trifluoromethyl)phenyl)-5,5-dimethyl-4-oxo-2-thioxoimidazolidin-1-yl)-2-fluorobenzamido)propanamido)-3,3-dimethylbutanoyl)-4-hydroxy-N-(4-(4-methylthiazol-5-yl)benzyl)pyrrolidine-2-carboxamide] | 26% | 35% | 28% | – | – | – | – |
| Cc1ncsc1-c1ccc(CNC(=O)C2C[C@@H](O)CN2C(=O)[C@@H](NC(=O)CCCNC(=O)c2ccc(N3C(=S)N(c4ccc(C#N)c(C(F)(F)F)c4)C(=O)C3(C)C)cc2F)C(C)(C)C)cc1 (stereo partly drawn) [Compound 9, (4R)-1-((S)-2-(4-(4-(3-(4-Cyano-3-(trifluoromethyl)phenyl)-5,5-dimethyl-4-oxo-2-thioxoimidazolidin-1-yl)-2-fluorobenzamido)butanamido)-3,3-dimethylbutanoyl)-4-hydroxy-N-(4-(4-methylthiazol-5-yl)benzyl)pyrrolidine-2-carboxamide] | 15% | 23% | 33% | – | – | – | – |
| Cc1ncsc1-c1ccc(CNC(=O)C2C[C@@H](O)CN2C(=O)[C@@H](NC(=O)CCCCNC(=O)c2ccc(N3C(=S)N(c4ccc(C#N)c(C(F)(F)F)c4)C(=O)C3(C)C)cc2F)C(C)(C)C)cc1 (stereo partly drawn) [Compound 10, (4R)-1-((S)-2-(5-(4-(3-(4-Cyano-3-(trifluoromethyl)phenyl)-5,5-dimethyl-4-oxo-2-thioxoimidazolidin-1-yl)-2-fluorobenzamido)pentanamido)-3,3-dimethylbutanoyl)-4-hydroxy-N-(4-(4-methylthiazol-5-yl)benzyl)pyrrolidine-2-carboxamide] | – | – | – | 16% | 20% | 25% | – |
| Cc1ncsc1-c1ccc(CNC(=O)C2C[C@@H](O)CN2C(=O)[C@@H](NC(=O)CCCCCNC(=O)c2ccc(N3C(=S)N(c4ccc(C#N)c(C(F)(F)F)c4)C(=O)C3(C)C)cc2F)C(C)(C)C)cc1 (stereo partly drawn) [Compound 11, (4R)-1-((S)-2-(6-(4-(3-(4-Cyano-3-(trifluoromethyl)phenyl)-5,5-dimethyl-4-oxo-2-thioxoimidazolidin-1-yl)-2-fluorobenzamido)hexanamido)-3,3-dimethylbutanoyl)-4-hydroxy-N-(4-(4-methylthiazol-5-yl)benzyl)pyrrolidine-2-carboxamide] | 11% | 25% | 29% | – | – | – | – |
| Cc1ncsc1-c1ccc(CNC(=O)C2C[C@@H](O)CN2C(=O)[C@@H](NC(=O)CCCCCCNC(=O)c2ccc(N3C(=S)N(c4ccc(C#N)c(C(F)(F)F)c4)C(=O)C3(C)C)cc2F)C(C)(C)C)cc1 (stereo partly drawn) [Compound 12, (4R)-1-((S)-2-(7-(4-(3-(4-Cyano-3-(trifluoromethyl)phenyl)-5,5-dimethyl-4-oxo-2-thioxoimidazolidin-1-yl)-2-fluorobenzamido)heptanamido)-3,3-dimethylbutanoyl)-4-hydroxy-N-(4-(4-methylthiazol-5-yl)benzyl)pyrrolidine-2-carboxamide] | 54% | 84% | 64% | – | – | – | – |
| Cc1ncsc1-c1ccc(CNC(=O)C2C[C@@H](O)CN2C(=O)[C@@H](NC(=O)CCCCCCCNC(=O)c2ccc(N3C(=S)N(c4ccc(C#N)c(C(F)(F)F)c4)C(=O)C3(C)C)cc2F)C(C)(C)C)cc1 (stereo partly drawn) [Compound 13, (4R)-1-((S)-2-(8-(4-(3-(4-Cyano-3-(trifluoromethyl)phenyl)-5,5-dimethyl-4-oxo-2-thioxoimidazolidin-1-yl)-2-fluorobenzamido)octanamido)-3,3-dimethylbutanoyl)-4-hydroxy-N-(4-(4-methylthiazol-5-yl)benzyl)pyrrolidine-2-carboxamide] | 29% | 65% | – | – | – | – | 8% |
| Cc1ncsc1-c1ccc(CNC(=O)C2C[C@@H](O)CN2C(=O)[C@@H](NC(=O)CCCCCCCCNC(=O)c2ccc(N3C(=S)N(c4ccc(C#N)c(C(F)(F)F)c4)C(=O)C3(C)C)cc2F)C(C)(C)C)cc1 (stereo partly drawn) [Compound 14, (4R)-1-((S)-2-(9-(4-(3-(4-Cyano-3-(trifluoromethyl)phenyl)-5,5-dimethyl-4-oxo-2-thioxoimidazolidin-1-yl)-2-fluorobenzamido)nonanamido)-3,3-dimethylbutanoyl)-4-hydroxy-N-(4-(4-methylthiazol-5-yl)benzyl)pyrrolidine-2-carboxamide] | 66% | 87% | – | – | – | – | 15% |
| Cc1ncsc1-c1ccc(CNC(=O)C2C[C@@H](O)CN2C(=O)[C@@H](NC(=O)CCCCCCCCCNC(=O)c2ccc(N3C(=S)N(c4ccc(C#N)c(C(F)(F)F)c4)C(=O)C3(C)C)cc2F)C(C)(C)C)cc1 (stereo partly drawn) [Compound 15, (4R)-1-((S)-2-(10-(4-(3-(4-Cyano-3-(trifluoromethyl)phenyl)-5,5-dimethyl-4-oxo-2-thioxoimidazolidin-1-yl)-2-fluorobenzamido)decanamido)-3,3-dimethylbutanoyl)-4-hydroxy-N-(4-(4-methylthiazol-5-yl)benzyl)pyrrolidine-2-carboxamide] | 48% | 88% | – | – | – | – | 10% |
| Cc1ncsc1-c1ccc(CNC(=O)C2C[C@@H](O)CN2C(=O)[C@@H](NC(=O)CCCCCCCCCCNC(=O)c2ccc(N3C(=S)N(c4ccc(C#N)c(C(F)(F)F)c4)C(=O)C3(C)C)cc2F)C(C)(C)C)cc1 (stereo partly drawn) [Compound 16, (4R)-1-((S)-2-(11-(4-(3-(4-Cyano-3-(trifluoromethyl)phenyl)-5,5-dimethyl-4-oxo-2-thioxoimidazolidin-1-yl)-2-fluorobenzamido)undecanamido)-3,3-dimethylbutanoyl)-4-hydroxy-N-(4-(4-methylthiazol-5-yl)benzyl)pyrrolidine-2-carboxamide] | 48% | 86% | – | – | – | – | 11% |
| Cc1ncsc1-c1ccc(CNC(=O)C2C[C@@H](O)CN2C(=O)[C@@H](NC(=O)CCCCCCCCCCCNC(=O)c2ccc(N3C(=S)N(c4ccc(C#N)c(C(F)(F)F)c4)C(=O)C3(C)C)cc2F)C(C)(C)C)cc1 (stereo partly drawn) [Compound 17, (4R)-1-((S)-2-(12-(4-(3-(4-Cyano-3-(trifluoromethyl)phenyl)-5,5-dimethyl-4-oxo-2-thioxoimidazolidin-1-yl)-2-fluorobenzamido)dodecanamido)-3,3-dimethylbutanoyl)-4-hydroxy-N-(4-(4-methylthiazol-5-yl)benzyl)pyrrolidine-2-carboxamide] | 30% | 69% | 75% | – | – | – | – |
| Cc1ncsc1-c1ccc(CNC(=O)C2C[C@@H](O)CN2C(=O)[C@@H](NC(=O)CCOCCOCCNC(=O)c2ccc(N3C(=S)N(c4ccc(C#N)c(C(F)(F)F)c4)C(=O)C3(C)C)cc2F)C(C)(C)C)cc1 (stereo partly drawn) [Compound 18, (4R)-1-((S)-13-(tert-Butyl)-1-(4-(3-(4-cyano-3-(trifluoromethyl)phenyl)-5,5-dimethyl-4-oxo-2-thioxoimidazolidin-1-yl)-2-fluorophenyl)-1,11-dioxo-5,8-dioxa-2,12-diazatetradecan-14-oyl)-4-hydroxy-N-(4-(4-methylthiazol-5-yl)benzyl)pyrrolidine-2-carboxamide] | 32% | 35% | 40% | – | – | – | – |
